Reference: US4145337A, “Aminoethylglycine containing polypeptides” (Hoffmann-La Roche Inc., priority 1977, dated 1979)
Non-standard residues stand in square brackets, D forms with d. Residues, ends and D or L forms follow the SMILES beside them. Gly(N-2-aminoethyl) = NCCNCC(=O)O

How the values were obtained:
[1] = system: gastric secretion; conditions: chronic fistula dog, Torchiana et al. 1977; cited from earlier work
[2] = system: peptic ulcer bleeding; conditions: infusion in man, Rasche et al. 1976; cited from earlier work
[3] = system: gastric mucus production; experiment: Stimulation of mucoprotein production: gastric mucosal carbohydrates and total protein; type: in vivo, rat; conditions: 800 μg/kg i.p.
Procedure: Overnight fasted rats received saline solutions of either Compound M or Compound A at the antisecretory dose of 800μg/kg administered intraperitoneally. Control rats were given only vehicle. All animals were sacrificed by decapitation 1 hour after dosing. After opening the abdomen the stomach was removed and its contents were washed away with 10 ml of a 0.85% NaCl solution. The excised stomachs were cut open along the greater curvature and the exposed gastric mucosa was carefully scraped. The scrapings were homogenized in 5 ml of the 0.85% NaCl solution and subjected to chemical analysis. Total hexoses were determined by the anthrone reaction, which is based on the formation in concentrated sulfuric acid of furfural derivatives which react with anthrone to form a blue-green color; this reaction has the advantage of being applied directly to the glycoprotein with color formation occuring concurrently with the liberation of sugars (Methods in Enzymology, Vol. VIII, pp. 4-5 1966). Fucose in the unhydrolyzed mucoprotein was determined by the Dische-Shettes cysteine-sulfuric acid reaction for methyl pentoses. This method allows accurate determination of fucose even in the presence of large amounts of hexoses and peptide material (Methods in Eznymology, Vol. VIII, pp 11-13 , 1966).
Total protein was determined using the Lowry method.

[4] = system: restraint ulcer formation; conditions: cited from earlier work
[5] = system: restraint-immersion induced gastric ulceration; experiment: Mouse restraint-immersion test, antiulcerogenic activity; type: in vivo
Procedure: In both studies CD-1 male mice weighing between 18-25 g were used. The mice were fasted for 19 hours prior to the initiation of restraint-immersion which involved restraining animals in rubber hoses and immersion in water (21° C.) to the height of the xiphoid process. In the first study, just prior to the initiation of the restraint-immersion procedure, mice received, via the subcutaneous route, graded amounts (0.1 to 10 mg/kg b.w.) of somatostatin (Compound A), Compound F, or vehicle (5% acacia); this administration was repeated two hours later. In the second study, the compounds (Compound A, Compound L, or vehicle) were administered only once, just prior to the initiation of the restraint-immersion procedure. Following four hours of restraint-immersion the animals (both studies) were killed and their stomachs examined for ulceration. The degree of ulceration was determined by the amount of visible blood present in the stomach and was rated on a scale of 0 to 4, with 0 being no detectable blood and 4 being a massive amount of blood. All compounds were dispersed in 5% acacia and administered at a dosage volume of 0.2 ml per 20 grams of body weight. The antiulcerogenic ED50 values were calculated using percent protection as the response and a computer program ("ED50") based on the probit method of Finney (Finney, "Probit Analysis", Cambridge University Press, 1971). The comparative effectiveness (relative potency R. P.) of somatostatin and Compound F (first study) or somatostatin and Compound L (second study) was determined from the dose responses using an "ED50" computer program.

[6] = system: gastrointestinal bleeding from residual ulcers; conditions: patient, 250 μg i.v. bolus then 250 μg per hour for 67 hours; cited from earlier work
[7] = system: duodenal ulcers produced by prolonged administration of pentagastrin or histamine; conditions: cats, continuous i.v. infusion 0.62 to 5.0 μg/kg-hr; cited from earlier work
[8] = system: basal gastric secretion and gastrin release; conditions: Bloom et al. 1974; cited from earlier work
[9] = system: basal gastric acid secretion; experiment: Gastric antisecretory activity in unanesthetized gastric fistula rat, i.v.; type: in vivo; conditions: 200 μg i.v. single bolus
Procedure: The gastric antisecretory effect of somatostatin analogs was studied in a model which utilizes unanesthetized rats.
All operative techniques were carried out on fasted female albino rats (average weight 250 g), under Penthrane anesthesia, using montraumatic microsurgical instruments, polyethylene tubing and a special adhesive. The basic model used in the present studies consisted of:
This allowed adequate hydration through the constant infusion of 0.15M NaCl (at the rate of 1.4 ml/hr.). This catheter was also used for i.v. administration of solutions of the test compounds.
(b) Catheterization of the stomach. A cannula in the forestomach allowed washing of the gastric lumen with saline (before experiments). Water (0.2 ml/10 min) was infused through this catheter during the experimental periods. This was done to prevent obstruction of the "collecting" cannula (see below) by gastric debris and to obtain a practical workable volume to measure several parameters of gastric secretion. A second cannula was positioned in the glandular stomach, close to the greater curvature, in the more dependent site and in such a way as to allow collection, by gravity, of all fluids emerging from the stomach. Passage of these secretions through a small glass container permitted continuous recording of pH by means of a glass microelectrode. A fraction collector was used to simultaneously obtain the gastric secretions.
(c) Catheterization of the lower part of the common bile duct to procure mixed secretions of bile and pancreatic juice as a function of time. This was done with the purpose of examining the effect of these compounds, if any, on bile flow.
This preparation is suitable for the bioassay of microgram quantities of gastric secretory depressants in which each animal serves as its own control. The rats (250 g b.w.) were allowed to attain a period of stabilized gastric acid output (for one hour) and were then injected intravenously (100 μl) with 200 μg of the test compound. This single bolus injection was immediately followed by a rinsing injection of 50 μl saline, thus insuring quantitative delivery of the dose. The pH was recorded continuously for 1 hour before and 1 1/2 hour after the i.v. injection of the test compounds. The gastric secretions were collected over 10-minute intervals before and after dosage. Four parameters of gastric secretion were evaluated: (a) changes in the negative logarithm of the hydrogen ion activity (pH, determined by the glass electrode either by a continuous trace or in samples taken at 10-minute intervals); (b) volume; (c) total acid concentration (μEq/ml); and d) total acid output (μEq/10-min periods).

[10] = system: pentagastrin-induced gastric acid secretion; conditions: Brown et al. 1977; cited from earlier work
[11] = system: growth hormone, insulin and glucagon; conditions: Brown et al. 1977; cited from earlier work
[12] = system: gastric secretion; experiment: Gastric antisecretory activity after intragastric administration, unanesthetized rat; type: in vivo; conditions: 8 mg/kg b.w. intragastrically, saline solution
Procedure: The unanesthetized rat model was used in an exact manner to that employed in the evaluation of gastric antisecretory activity after parenteral administration described above in A, with the following modification. Following recording of the gastric pH for 1 hour, drainage of the gastric secretions was interrupted by means of a forceps. Saline solutions (total volume = 1000 μl) of Compound N (at the dose of 8 mg/kg b.w.) were then intragastrically administered, via the canula in the avascular stomach, which was closed. Fifteen minutes later, the catheter draining the gastric secretions was reopened; the water infusion through the catheter in the forestomach was simultaneously reestablished. The pH was now recorded continuously for 1 1/2 hours. Samples of gastric juice were taken before and after treatment, and analyzed for the usual four parameters of gastric secretion.

[13] = 1 hour after dosing, mucosal scrapings

C[C@H](N)C(=O)NCC(=O)N[C@H]1CSSC[C@@H](C(=O)O)NC(=O)[C@H](CO)NC(=O)[C@H]([C@@H](C)O)NC(=O)[C@H](Cc2ccccc2)NC(=O)[C@H]([C@@H](C)O)NC(=O)[C@H](CCCCN)NC(=O)[C@H](Cc2c[nH]c3ccccc23)NC(=O)[C@H](Cc2ccccc2)NC(=O)[C@H](Cc2ccccc2)NC(=O)[C@H](CC(N)=O)NC(=O)[C@H](CCCCN)NC1=O [Compound A, somatostatin]
duration of inhibitory effects on gastric secretion [1]: short duration
effect on peptic ulcer bleeding [2]: stop peptic ulcer bleeding
Fucose, gastric mucosal concentration (mean) [3, 13]: 46.2 μg/total sample
Hexose, gastric mucosal concentration (mean) [3, 13]: 235.3 μg/total sample
Total Protein, gastric mucosal concentration (mean) [3, 13]: 350.0 μg/total sample
gastric mucosal carbohydrates versus control, in words ([3]; 1 hour after treatment): did not appear to influence concentration of carbohydrates
gastric mucosal total protein versus control, in words ([3]; 1 hour after treatment): produced an increment of the total protein
ulcers relative to untreated animals ([4]; 100 μg linear protamine-zinc-somatostatin/rat s.c. before, 3 h and 6 h, after 9 hours of immobilization): 1/5
effect on restraint ulcer formation ([4]; subcutaneous administration in rats, Zierden et al. 1976): prophylactic effect on restraint ulcer formation
prevention of restraint-immersion induced gastric ulceration, in words ([5]; first study, s.c. twice): effective in preventing restraint-immersion induced gastric ulceration
antiulcerogenic ED50 ([5]; first study: s.c. just prior to restraint-immersion, repeated two hours later, 4 h restraint-immersion): 0.35 mg/kg
ED50 ([5]; second study: administered only once just prior to restraint-immersion, 4 h): 6.70 mg/kg
effect on bleeding [6]: immediate cessation of the bleeding after 1 hour
endoscopy at the end of treatment period [6]: two ulcers in the process of healing
prevention of duodenal ulcers [7]: effectively prevented the formation of duodenal ulcers
effect on basal gastric secretion and gastrin release [8]: inhibits basal gastric secretion and gastrin release

C[C@H](N)C(=O)NCC(=O)N[C@@H](CS)C(=O)N[C@@H](CCCCN)C(=O)N[C@@H](CC(N)=O)C(=O)N[C@@H](Cc1ccccc1)C(=O)N[C@@H](Cc1ccccc1)C(=O)N[C@@H](Cc1c[nH]c2ccccc12)C(=O)N[C@@H](CCCCN)C(=O)N[C@H](C(=O)N[C@@H](Cc1ccccc1)C(=O)N[C@H](C(=O)N[C@@H](CO)C(=O)N[C@@H](CS)C(=O)O)[C@@H](C)O)[C@@H](C)O [Compound B, HAlaGlyCysLysAsnPhePheTrpLysThrPheThrSerCysOH]
gastric antisecretory activity (pH and acid concentration), in words, relative to somatostatin [9]: as active as the oxidized, cyclic somatostatin

C[C@@H](O)[C@@H]1NC(=O)[C@H](CCCCN)NC(=O)[C@H](Cc2c[nH]c3ccccc23)NC(=O)[C@H](Cc2ccccc2)NC(=O)[C@H](Cc2ccccc2)NC(=O)[C@H](CC(N)=O)NC(=O)[C@H](CCCCN)NC(=O)CN(CCN)C(=O)[C@H](CO)NC(=O)[C@H]([C@@H](C)O)NC(=O)[C@H](Cc2ccccc2)NC1=O [Compound D, Cyclo [Aminoethylglycyl-L-lysyl-L-asparaginyl-L-phenylalanyl-L-phenylalanyl-L-tryptophyl-L-lysyl-L-threonyl-L-phenylalanyl-L-threonyl-L-seryl]] (cyclo(FFWKTFTS[Gly(N-2-aminoethyl)]KN))
gastric antisecretory activity (pH and acid concentration), in words, relative to somatostatin [9]: erratic activity

C[C@H](NC(=O)CNCCN)C(=O)NCC(=O)N[C@@H](CS)C(=O)N[C@@H](CCCCN)C(=O)N[C@@H](CC(N)=O)C(=O)N[C@@H](Cc1ccccc1)C(=O)N[C@@H](Cc1ccccc1)C(=O)N[C@@H](Cc1c[nH]c2ccccc12)C(=O)N[C@@H](CCCCN)C(=O)N[C@H](C(=O)N[C@@H](Cc1ccccc1)C(=O)N[C@H](C(=O)N[C@@H](CO)C(=O)N[C@@H](CS)C(=O)O)[C@@H](C)O)[C@@H](C)O [Compound E, Aminoethylglycyl-L-alanyl-glycyl-L-cysteinyl-L-lysyl-L-asparaginyl-L-phenylalanyl-L-phenylalanyl-L-tryptophyl-L-lysyl-L-threonyl-L-phenylalanyl-L-threonyl-L-seryl-L-cysteine]
gastric antisecretory activity (pH and acid concentration), in words, relative to somatostatin [9]: severely decreases activity

C[C@@H](O)[C@H](NC(=O)[C@H](Cc1ccccc1)NC(=O)[C@@H](NC(=O)[C@H](CCCCN)NC(=O)[C@H](Cc1c[nH]c2ccccc12)NC(=O)[C@H](Cc1ccccc1)NC(=O)[C@H](Cc1ccccc1)NC(=O)[C@H](CC(N)=O)NC(=O)[C@H](CCCCN)NC(=O)[C@H](CS)NC(=O)CNCCN)[C@@H](C)O)C(=O)N[C@@H](CO)C(=O)N[C@@H](CS)C(=O)N(CCN)CC(=O)O [Compound J, Aminoethylglycyl-L-cysteinyl-L-lysyl-L-asparaginyl-L-phenylalanyl-L-phenylalanyl-L-tryptophyl-L-lysyl-L-threonyl-L-phenylalanyl-L-threonyl-L-seryl-L-cysteinyl-aminoethylglycine] (H-[Gly(N-2-aminoethyl)]CKNFFWKTFTSC[Gly(N-2-aminoethyl)]-OH)
gastric antisecretory activity (pH and acid concentration), in words, relative to somatostatin [9]: less active than somatostatin

(D-Trp^8)-somatostatin
potency in inhibition of pentagastrin-induced gastric acid secretion relative to somatostatin [10]: less potent
potency in inhibition of growth hormone, insulin and glucagon relative to somatostatin [11]: higher potency than somatostatin

Aminoethylglycyl-aminoethylglycyl-L-cysteinyl-L-lysyl-L-asparaginyl-L-phenylalanyl-L-phenylalanyl-D-tryptopyl-L-lysyl-L-threonyl-L-phenylalanyl-L-threonyl-L-seryl-L-cysteine [Compound N]
gastric antisecretory activity after intragastric administration [12]: active after intragastric administration
